Each molecule was assayed against T1, human S1P1 receptors (Homo sapiens, UniProt P21453) (assay: Human S1P1 Receptor Calcium FLIPR Antagonist Assay (HeLa Gα16 S1P1)). Conditions: relative antagonism of Ca2+ signal evoked by probing agonist GNF-AC-1 at EC80; HeLa-S1P1/Gα16 cells.
T1 construct: myc (N); expressed in transfected cells; host or cells: HeLa (human cervix carcinoma, ATCC CCL2), HeLa-S1P1/Gα16 cell clone 1
Format: cell-based
Description: Human S1P1 Receptor Calcium FLIPR Antagonist Assay
The cells are plated in 384 well black plates (10′000 cells per well). […] After washing, the cells are transferred to the FLIPR. The test compounds are added at different concentrations […]) in HBSS in the presence of 0.1% BSA and changes in fluorescence are recorded (indication of agonism). The probing agonist is added 20-30 minutes afterwards to the wells at a concentration giving 80% of the maximal activity (EC80). After each addition, time points are collected as follows: 20 time points (2 seconds) before the addition of the agonist (Fmin) and 60 time points (1 or 2 seconds) after the addition of the probing agonist. This allows the determination of the maximal fluorescence (Fmax). The ratio (Fmax-Fmin)/Fmin is plotted against the log of the concentration of the test compounds and the IC50 (relative antagonism) is calculated using the XLfit-4 software. […] A concentration-response curve of the probing agonist is determined on each plate in parallel.

T1 sequence (P21453 whole entry): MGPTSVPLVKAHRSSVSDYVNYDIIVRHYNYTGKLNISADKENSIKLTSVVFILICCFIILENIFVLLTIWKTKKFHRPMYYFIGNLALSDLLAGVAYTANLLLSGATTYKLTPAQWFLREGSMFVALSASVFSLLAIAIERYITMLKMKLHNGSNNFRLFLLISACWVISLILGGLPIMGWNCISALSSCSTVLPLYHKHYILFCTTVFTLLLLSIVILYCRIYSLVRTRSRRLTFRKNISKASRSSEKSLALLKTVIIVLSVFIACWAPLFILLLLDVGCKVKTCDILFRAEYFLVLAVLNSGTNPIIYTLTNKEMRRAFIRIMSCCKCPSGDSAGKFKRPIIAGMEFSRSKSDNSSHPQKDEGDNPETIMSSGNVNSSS

| IC50 [nM] | SMILES |
| --- | --- |
| 1 | Cc1cc(C(C)Nc2cccc(-c3ccc(C(=O)N[C@@H](C)C(=O)O)c(Cl)c3)c2)cc(C)c1Cl (stereo partly drawn) [Example 52, (S)-2-({3-Chloro-3′-[1-(4-chloro-3,5-dimethyl-phenyl)-ethylamino]-biphenyl-4-carbonyl}-amino)-propionic acid] |
| 5 | Cc1cc(C(C)Nc2cccc(-c3ccc(C(=O)N(C)[C@@H](C)C(=O)O)c(Cl)c3)c2)cc(C)c1Cl (stereo partly drawn) [Example 53, (S)-2-({3-Chloro-3′-[1-(4-chloro-3,5-dimethyl-phenyl)-ethylamino]-biphenyl-4-carbonyl}-methyl-amino)-propionic acid] |
| 9 | Cc1cc(C(C)Nc2cccc(-c3ccc(C(=O)N(C)[C@@H](C)C(=O)O)c(F)c3)c2)cc(C)c1Cl (stereo partly drawn) [Example 55, (S)-2-({3′-[1-(4-Chloro-3,5-dimethyl-phenyl)-ethylamino]-3-fluoro-biphenyl-4-carbonyl}-methyl-amino)-propionic acid] |
| 1 | Cc1cc(C(C)Nc2cccc(-c3cc(F)c(C(=O)N[C@@H](C)C(=O)O)c(F)c3)c2)cc(C)c1Cl (stereo partly drawn) [Example 56, (S)-2-({3′-[1-(4-Chloro-3,5-dimethyl-phenyl)-ethylamino]-3,5-difluoro-biphenyl-4-carbonyl}-amino)-propionic acid] |
| 6 | Cc1cc(C(C)Nc2cccc(-c3cc(F)c(C(=O)N(C)[C@@H](C)C(=O)O)c(F)c3)c2)cc(C)c1Cl (stereo partly drawn) [Example 57, (S)-2-({3′-[1-(4-Chloro-3,5-dimethyl-phenyl)-ethylamino]-3,5-difluoro-biphenyl-4-carbonyl}-methyl-amino)-propionic acid] |
| 2 | CCC(Nc1cccc(-c2ccc(C(=O)N(C)[C@@H](C)C(=O)O)c(C)c2)c1)c1ccc(Cl)c(C)c1 (stereo partly drawn) [Example 58, (S)-2-({3′-[1-(4-Chloro-3-methyl-phenyl)-propylamino]-3-methyl-biphenyl-4-carbonyl}-methyl-amino)-propionic acid] |
| 3 | Cc1cc(-c2cccc(NC(C)c3cc(C)c(Cl)c(C)c3)c2)ccc1C(=O)N(C)[C@@H](C)C(=O)O (stereo partly drawn) [Example 59, (S)-2-({3′-[1-(4-Chloro-3,5-dimethyl-phenyl)-ethylamino]-3-methyl-biphenyl-4-carbonyl}-methyl-amino)-propionic acid] |
| 1 | CCC(Nc1cccc(-c2ccc(C(=O)N[C@@H](C)C(=O)O)c(Cl)c2)c1)c1ccc(Cl)c(C)c1 (stereo partly drawn) [Example 60, (S)-2-({3-Chloro-3′-[1-(4-chloro-3-methyl-phenyl)-propylamino]-biphenyl-4-carbonyl}-amino)-propionic acid] |
| 1 | CCC(Nc1cccc(-c2ccc(C(=O)N(C)[C@@H](C)C(=O)O)c(Cl)c2)c1)c1ccc(Cl)c(C)c1 (stereo partly drawn) [Example 61, (S)-2-({3-Chloro-3′-[1-(4-chloro-3-methyl-phenyl)-propylamino]-biphenyl-4-carbonyl}-methyl-amino)-propionic acid] |
| 1 | Cc1cc(C(C)Nc2cccc(-c3ccc(C(=O)N[C@@H](C)C(=O)O)c(C(F)(F)F)c3)c2)ccc1Cl (stereo partly drawn) [Example 62, (S)-2-({3′-[1-(4-Chloro-3-methyl-phenyl)-ethylamino]-3-trifluoromethyl-biphenyl-4-carbonyl}-amino)-propionic acid] |
| 2 | Cc1cc(C(C)Nc2cccc(-c3ccc(C(=O)N(C)[C@@H](C)C(=O)O)c(C(F)(F)F)c3)c2)ccc1Cl (stereo partly drawn) [Example 63, (S)-2-({3′-[1-(4-Chloro-3-methyl-phenyl)-ethylamino]-3-trifluoromethyl-biphenyl-4-carbonyl}-methyl-amino)-propionic acid] |
| 1 | Cc1cc(C(C)Nc2cccc(-c3ccc(C(=O)N[C@@H](C)C(=O)O)c(C(F)(F)F)c3)c2)cc(C)c1Cl (stereo partly drawn) [Example 64, (S)-2-({3′-[1-(4-Chloro-3,5-dimethyl-phenyl)-ethylamino]-3-trifluoromethyl-biphenyl-4-carbonyl}-amino)-propionic acid] |
| 6 | Cc1cc(C(C)Nc2cccc(-c3ccc(C(=O)N(C)[C@@H](C)C(=O)O)c(C(F)(F)F)c3)c2)cc(C)c1Cl (stereo partly drawn) [Example 65, (S)-2-({3′-[1-(4-Chloro-3,5-dimethyl-phenyl)-ethylamino]-3-trifluoromethyl-biphenyl-4-carbonyl}-methyl-amino)-propionic acid] |
| 3 | CCC(Nc1cccc(-c2ccc(C(=O)N[C@@H](C)C(=O)O)c(C(F)(F)F)c2)c1)c1ccc(Cl)c(C)c1 (stereo partly drawn) [Example 66, (S)-2-({3′-[1-(4-Chloro-3-methyl-phenyl)-propylamino]-3-trifluoromethyl-biphenyl-4-carbonyl}-amino)-propionic acid] |
| 3 | CCC(Nc1cccc(-c2ccc(C(=O)N(C)[C@@H](C)C(=O)O)c(C(F)(F)F)c2)c1)c1ccc(Cl)c(C)c1 (stereo partly drawn) [Example 67, (S)-2-({3′-[1-(4-Chloro-3-methyl-phenyl)-propylamino]-3-trifluoromethyl-biphenyl-4-carbonyl}-methyl-amino)-propionic acid] |
| 1 | Cc1cc(C(C)Nc2cccc(-c3cc(C)c(C(=O)NCC(=O)O)c(C)c3)c2)ccc1Cl (centres unmarked) [Example 68, ({3′-[1-(4-Chloro-3-methyl-phenyl)-ethylamino]-3,5-dimethyl-biphenyl-4-carbonyl}-amino)-acetic acid] |
| 2 | COC[C@H](NC(=O)c1c(C)cc(-c2cccc(NC(C)c3ccc(Cl)c(C)c3)c2)cc1C)C(=O)O (stereo partly drawn) [Example 69, (S)-2-({3′-[1-(4-Chloro-3-methyl-phenyl)-ethylamino]-3,5-dimethyl-biphenyl-4-carbonyl}-amino)-3-methoxy-propionic acid] |
| 2 | Cc1cc(C(C)Nc2cccc(-c3cc(C)c(C(=O)N[C@@H](CCCCN)C(=O)O)c(C)c3)c2)ccc1Cl (stereo partly drawn) [Example 70, (S)-6-Amino-2-({3′-[1-(4-chloro-3-methyl-phenyl)-ethylamino]-3,5-dimethyl-biphenyl-4-carbonyl}-amino)-hexanoic acid] |
| 2 | Cc1cc(C(C)Nc2cccc(-c3cc(C)c(C(=O)NC4(C(=O)O)CCC4)c(C)c3)c2)ccc1Cl (centres unmarked) [Example 72, 1-({3′-[1-(4-Chloro-3-methyl-phenyl)-ethylamino]-3,5-dimethyl-biphenyl-4-carbonyl}-amino)-cyclobutanecarboxylic acid] |
| 3 | Cc1cc(C(C)Nc2cccc(-c3ccc(C(=O)N(C)[C@@H](C)C(=O)O)c(C)c3)c2)ccc1Cl (some centres unmarked) [Example 76] |
| 7 | Cc1cc(-c2cccc(NC(C)c3ccc(Cl)c(Cl)c3)c2)ccc1C(=O)N(C)[C@@H](C)C(=O)O (stereo partly drawn) [Example 78, (S)-2-({3′-[1-(3,4-Dichloro-phenyl)-ethylamino]-3-methyl-biphenyl-4-carbonyl}-methyl-amino)-propionic acid] |
| 2 | Cc1cc(C(C)Nc2cccc(-c3cc(C)c(C(=O)NC4(C(=O)O)CNC4)c(C)c3)c2)ccc1Cl (centres unmarked) [Example 79, 3-({3′-[1-(4-Chloro-3-methyl-phenyl)-ethylamino]-3,5-dimethyl-biphenyl-4-carbonyl}-amino)-azetidine-3-carboxylic acid] |
| 4 | Cc1cc(C(C)N(C)c2cccc(-c3cc(C)c(C(=O)N[C@@H](C)C(=O)O)c(C)c3)c2)ccc1Cl (stereo partly drawn) [Example 80, (S)-2-[(3′-{[1-(4-Chloro-3-methyl-phenyl)-ethyl]-methyl-amino}-3,5-dimethyl-biphenyl-4-carbonyl)-amino]-propionic acid] |
| 6 | CCC(Nc1ccc(F)c(-c2ccc(C(=O)N(C)[C@@H](C)C(=O)O)c(C)c2)c1)c1ccc(Cl)c(C)c1 (stereo partly drawn) [Example 86, (S)-2-({5′-[1-(4-Chloro-3-methyl-phenyl)-propylamino]-2′-fluoro-3-methyl-biphenyl-4-carbonyl}-methyl-amino)-propionic acid] |
| 4 | Cc1cc(C(C)Nc2ccc(F)c(-c3ccc(C(=O)N(C)[C@@H](C)C(=O)O)c(Cl)c3)c2)ccc1Cl (stereo partly drawn) [Example 87, (S)-2-({3-Chloro-5′-[1-(4-chloro-3-methyl-phenyl)-ethylamino]-2′-fluoro-biphenyl-4-carbonyl}-methyl-amino)-propionic acid] |
| 5 | CCC(Nc1ccc(F)c(-c2ccc(C(=O)N(C)[C@@H](C)C(=O)O)c(Cl)c2)c1)c1ccc(Cl)c(C)c1 (some centres unmarked) [Example 88] |
| 13 | CCC(Nc1ccc(F)c(-c2ccc(C(=O)N(C)[C@@H](C)C(=O)O)c(C(F)(F)F)c2)c1)c1ccc(Cl)c(C)c1 (stereo partly drawn) [Example 89, (S)-2-({5′-[1-(4-Chloro-3-methyl-phenyl)-propylamino]-2′-fluoro-3-trifluoromethyl-biphenyl-4-carbonyl}-methyl-amino)-propionic acid] |
| 10 | Cc1cc(C(Nc2cccc(-c3cc(C)c(C(=O)N[C@@H](C)C(=O)O)c(C)c3)c2)C(C)C)ccc1Cl (stereo partly drawn) [Example 90, (S)-2-({3′-[1-(4-Chloro-3-methyl-phenyl)-2-methyl-propylamino]-3,5-dimethyl-biphenyl-4-carbonyl}-amino)-propionic acid] |
| 4 | Cc1cc(C(Nc2cccc(-c3ccc(C(=O)N(C)[C@@H](C)C(=O)O)c(C(F)(F)F)c3)c2)C(F)(F)F)ccc1Cl (stereo partly drawn) [Example 91, (S)-2-({3′-[1-(4-Chloro-3-methyl-phenyl)-2,2,2-trifluoro-ethylamino]-3-trifluoromethyl-biphenyl-4-carbonyl}-methyl-amino)-propionic acid] |
